Results: patent US20230270798A1, “SYNBIOTIC COMPOSITION” (SOCIETE DES PRODUITS NESTLE S.A., priority 2020, published 2023)

Assays:
Streptococcus salivarius = assay: Short-term colonic incubation, population of Streptococcus salivarius (16S Illumina sequencing with flow cytometry); format: cell-based
Protocol: (§1) The aim of this project was to evaluate the properties of a synbiotic combination of Bifidobacterium longum subsp. longum ATCC BAA-999 and LNT using short-term colonic incubations (48 h), in which the proximal colon environment of a baby was simulated. The evaluation was based on the effects on microbial metabolic activity (SCFA, lactate and ammonium production) and community composition (16Stargeted Illumina sequencing), through comparison with a blank (no treatment), a probiotic (containing only the B. longum subsp. longum strain) and a prebiotic (containing only LNT).
(§2) In these experiments, a simplified simulation of the continuous Simulator of the Human Microbial Ecosystem (SHIME®) was used. […]
(§3) To account for biological variability, all tests were performed in triplicate, resulting in 12 independent incubations. […] Ammonium concentrations were measured at the start and after 48 h of incubation. The effect on the gut microbial community was assessed through Illumina sequencing at the start of the incubation and after 6 h, and 48 h. […]

B. longum subsp. longum = assay: Short-term colonic incubation, population of B. longum subsp. longum (16S Illumina sequencing with flow cytometry); format: cell-based, Bifidobacterium longum subsp. longum; details: after 6 and 48 hours of incubation; synbiotic compared to the probiotic alone
Protocol: as §1, §2, §3

## CC(=O)N[C@H]1[C@H](O[C@H]2[C@@H](O)[C@@H](CO)O[C@@H](O[C@H]3[C@H](O)[C@@H](O)C(O)O[C@@H]3CO)[C@@H]2O)O[C@H](CO)[C@@H](O)[C@@H]1O[C@@H]1O[C@H](CO)[C@H](O)[C@H](O)[C@H]1O (stereo partly drawn) [prebiotic, Lacto-N-tetraose]
Streptococcus salivarius; 48 hours vs 6 hours
  population of S. salivarius at 48 hours compared to the population at 6 hours (in words): strongly decreases
Streptococcus salivarius; after 6 and 48 hours of incubation
  boost of the population of Streptococcus salivarius (in words): neither the probiotic alone, nor the prebiotic alone were able to boost
B. longum subsp. longum
  population of B. longum subsp. longum (in words): no effect
